In PubChem BioAssay AID330 (DTP/NCI, 2004) one finds T/C data, which are given here for 17 compounds.

“And” between values parts separate entries of the source, which are not always exact repeats. Equal values may be shown once. Inconclusive results and toxic doses are left out.

The test system of this assay is P388 leukemia ip, CD2F1 mice, survival T/C. Put plainly: NCI In Vivo Anticancer Drug Screen. Data for tumor model P388 Leukemia (intraperitoneal) in CD2F1 (CDF1) mice. To be noted: endpoint: median survival time, higher = longer survival. The essentials:
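Mice carrying the transplanted tumor received test compound or vehicle. Survival was recorded in each group, and the value is the treated-group measurement divided by that of the vehicle-treated control group.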

The mark [1] stands for this setting: dose: 100.0 mg/kg/injection, schedule: Q04DX003 (ip), vehicle: saline with Tween-80.
Where [2] appears, read: dose: 200.0 mg/kg/injection, schedule: Q04DX003 (ip), vehicle: saline with Tween-80.
[3] abbreviates: dose: 50.0 mg/kg/injection, schedule: Q04DX003 (ip), vehicle: saline with Tween-80.
Where [4] appears, read: dose: 50.0 mg/kg/injection, schedule: Q01DX005 (ip), vehicle: saline with Tween-80.
[5] abbreviates: dose: 100.0 mg/kg/injection, schedule: Q01DX005 (ip), vehicle: saline with Tween-80.
Setting [6] is: dose: 200.0 mg/kg/injection, schedule: Q01DX005 (ip), vehicle: saline with Tween-80.

Regarding `COc1cc(C)c2c(c1OC)C(=O)OC2`, the T/C is, setting by setting: (dose: 100.0 mg/kg/injection, schedule: Q04DX003 (ip), vehicle: Klucel (hydroxypropylcellulose) (HPC)) 98 % of control; (dose: 200.0 mg/kg/injection, schedule: Q04DX003 (ip), vehicle: Klucel (hydroxypropylcellulose) (HPC)) 97 % of control; (dose: 400.0 mg/kg/injection, schedule: Q04DX003 (ip), vehicle: Klucel (hydroxypropylcellulose) (HPC)) 98 % of control.
In the case of `Nc1cc(=O)[nH][nH]1`, the T/C is, setting by setting: under setting [1], 100 % of control; under setting [2], 100 % of control; (dose: 400.0 mg/kg/injection, schedule: Q04DX003 (ip), vehicle: saline with Tween-80) 109 % of control.
Take `COC(=O)CCCC/C=C\CCCCCCC1C=CCC1` (stereo not given): the T/C (dose: 100.0 mg/kg/injection, schedule: Q01DX001 (ip), vehicle: saline) was 100 % of control; the T/C (dose: 200.0 mg/kg/injection, schedule: Q01DX001 (ip), vehicle: saline) was 101 % of control; the T/C (dose: 400.0 mg/kg/injection, schedule: Q01DX001 (ip), vehicle: saline) is 101 % of control.
For the compound `COc1ccc(Cc2cc(O)c(O)cc2C)cc1`, the T/C was 108 % of control (dose: 2.5 mg/kg/injection, schedule: Q01DX009 (ip), vehicle: saline with Tween-80); 105 % of control (dose: 5.0 mg/kg/injection, schedule: Q01DX009 (ip), vehicle: saline with Tween-80); 108 % of control (dose: 10.0 mg/kg/injection, schedule: Q01DX009 (ip), vehicle: saline with Tween-80).
For the compound `CC(=O)/C=C/C=C\C=C/N=C(c1ccccc1)c1ccccc1`, the T/C by setting is: under setting [3], 95 % of control; under setting [1], 93 % of control; under setting [2], 93 % of control.
As for `O=C(Nc1nnc(-c2cc(=O)c3cc(Cl)ccc3o2)s1)c1ccccc1`, the T/C was 92 % of control under setting [4]; 87 % of control and 88 % of control under setting [5]; 99 % of control and 89 % of control under setting [6].
Take `CC(=O)NOCC1NC(=O)C(CONC(C)=O)NC1=O` (stereo not given): the T/C by setting is: (dose: 30.0 mg/kg/injection, schedule: Q01DX005 (ip), vehicle: saline) 103 % of control; (dose: 60.0 mg/kg/injection, schedule: Q01DX005 (ip), vehicle: Klucel (hydroxypropylcellulose) (HPC)) 105 % of control; (dose: 60.0 mg/kg/injection, schedule: Q01DX005 (ip), vehicle: saline) 103 % of control; (dose: 120.0 mg/kg/injection, schedule: Q01DX005 (ip), vehicle: Klucel (hydroxypropylcellulose) (HPC)) 115 % of control; (dose: 120.0 mg/kg/injection, schedule: Q01DX005 (ip), vehicle: saline) 108 % of control; (dose: 240.0 mg/kg/injection, schedule: Q01DX005 (ip), vehicle: Klucel (hydroxypropylcellulose) (HPC)) 120 % of control. Further, the T/C (dose: 240.0 mg/kg/injection, schedule: Q01DX005 (ip), vehicle: saline) was 120 % of control.
In the case of `COC(CNC(=O)Nc1cccnc1)[CH2][Hg][Cl]` (stereo not given), the T/C was 91 % of control (dose: 25.0 mg/kg/injection, schedule: Q04DX003 (ip), vehicle: saline with Tween-80) and 116 % of control under setting [3].
With `Cc1cc2c(=O)[nH]cnc2n1C1C(O)CCCC1O` (stereo not given), the T/C reads like this: (dose: 50.0 mg/kg/injection, schedule: Q01DX005 (ip), vehicle: Klucel (hydroxypropylcellulose) (HPC)) 106 % of control; (dose: 100.0 mg/kg/injection, schedule: Q01DX005 (ip), vehicle: Klucel (hydroxypropylcellulose) (HPC)) 104 % of control; (dose: 200.0 mg/kg/injection, schedule: Q01DX005 (ip), vehicle: Klucel (hydroxypropylcellulose) (HPC)) 107 % of control.
For `CCOC(OCC)C(=O)OCC(=O)[C@]1(O)Cc2c(O)c3c(c(O)c2[C@@H](OC2CC(N)C(O)C(C)O2)C1)C(=O)c1c(OC)cccc1C3=O` (stereo not given in full), the T/C (dose: 0.13 mg/kg/injection, schedule: Q03HX008 (ip), vehicle: saline) was 111 % of control; the T/C (dose: 0.25 mg/kg/injection, schedule: Q03HX008 (ip), vehicle: saline) was 117 % of control; the T/C (dose: 0.5 mg/kg/injection, schedule: Q01DX009 (ip), vehicle: saline) was 160 % of control; the T/C (dose: 1.0 mg/kg/injection, schedule: Q01DX001 (ip), vehicle: saline) was 118 % of control; the T/C (dose: 1.0 mg/kg/injection, schedule: Q01DX009 (ip), vehicle: saline) is 173 % of control; the T/C (dose: 2.0 mg/kg/injection, schedule: Q01DX001 (ip), vehicle: saline) was 123 % of control. Further, the T/C (dose: 2.0 mg/kg/injection, schedule: Q01DX009 (ip), vehicle: saline) was 245 % of control; the T/C (dose: 4.0 mg/kg/injection, schedule: Q01DX009 (ip), vehicle: saline) was 198 % of control; the T/C (dose: 4.0 mg/kg/injection, schedule: Q03HX008 (ip), vehicle: saline) is 168 % of control; the T/C (dose: 8.0 mg/kg/injection, schedule: Q03HX008 (ip), vehicle: saline) is 88 % of control; the T/C (dose: 16.0 mg/kg/injection, schedule: Q01DX001 (ip), vehicle: saline) is 170 % of control; the T/C (dose: 32.0 mg/kg/injection, schedule: Q01DX001 (ip), vehicle: saline) was 189 % of control. For the same compound, where the note is “dose: 64.0 mg/kg/injection, schedule: Q01DX001 (ip), vehicle: saline”, the T/C is 87 % of control.
Take `CC1(C2=CCCCC2)CCC(=O)NC1=O` (stereo not given): the T/C is, setting by setting: (dose: 60.0 mg/kg/injection, schedule: Q01DX005 (ip), vehicle: saline with Tween-80) 100 % of control; (dose: 120.0 mg/kg/injection, schedule: Q01DX005 (ip), vehicle: saline with Tween-80) 98 % of control; (dose: 240.0 mg/kg/injection, schedule: Q01DX005 (ip), vehicle: saline with Tween-80) 98 % of control.
For the compound `CC(NC(=O)C(CO)NC(=O)CN)C(=O)O` (stereo not given), the T/C by setting is: (dose: 50.0 mg/kg/injection, schedule: Q01DX005 (ip), vehicle: saline) 101 % of control; (dose: 100.0 mg/kg/injection, schedule: Q01DX005 (ip), vehicle: saline) 99 % of control; (dose: 200.0 mg/kg/injection, schedule: Q01DX005 (ip), vehicle: saline) 105 % of control.
Regarding `COC(=O)C1C(=O)COc2ccccc21` (stereo not given), the T/C is 105 % of control (dose: 100.0 mg/kg/injection, schedule: Q04DX003 (ip), vehicle: saline); 106 % of control (dose: 200.0 mg/kg/injection, schedule: Q04DX003 (ip), vehicle: saline); 106 % of control (dose: 400.0 mg/kg/injection, schedule: Q04DX003 (ip), vehicle: saline).
`CC1OC(C)(C)OC1C(=O)O` (stereo not given): the T/C (dose: 3.13 mg/kg/injection, schedule: Q01DX009 (ip), vehicle: Klucel (hydroxypropylcellulose) (HPC)) was 89 % of control; the T/C (dose: 6.25 mg/kg/injection, schedule: Q01DX009 (ip), vehicle: Klucel (hydroxypropylcellulose) (HPC)) is 95 % of control; the T/C (dose: 12.5 mg/kg/injection, schedule: Q01DX009 (ip), vehicle: Klucel (hydroxypropylcellulose) (HPC)) is 92 % of control; the T/C (dose: 25.0 mg/kg/injection, schedule: Q01DX009 (ip), vehicle: Klucel (hydroxypropylcellulose) (HPC)) is 89 % of control; the T/C (dose: 50.0 mg/kg/injection, schedule: Q01DX009 (ip), vehicle: Klucel (hydroxypropylcellulose) (HPC)) was 89 % of control.
`CCn1c2ccc(N)cc2c2c(N)c(-n3cccc3)ccc21`: the T/C by setting is: under setting [4], 100 % of control; under setting [5], 100 % of control; under setting [6], 100 % of control.
Turning to `COc1ccc(CC2c3cc(OC)c(OC)cc3CCN2C)cc1OC` (stereo not given), the T/C runs as follows: (dose: 1.5 mg/kg/injection, schedule: Q01DX005 (ip), vehicle: saline with Tween-80) 97 % of control; (dose: 3.0 mg/kg/injection, schedule: Q01DX005 (ip), vehicle: saline with Tween-80) 98 % of control; (dose: 6.0 mg/kg/injection, schedule: Q01DX005 (ip), vehicle: saline with Tween-80) 99 % of control; (dose: 50.0 mg/kg/injection, schedule: Q01DX009 (ip), vehicle: saline with Tween-80) 91 % of control.
`CCOC(=O)Nc1nncs1`: the T/C is 103 % of control (dose: 12.5 mg/kg/injection, schedule: Q01DX009 (ip), vehicle: distilled water + Tween-80); 105 % of control and 108 % of control (dose: 25.0 mg/kg/injection, schedule: Q01DX009 (ip), vehicle: distilled water + Tween-80); 108 % of control (dose: 50.0 mg/kg/injection, schedule: Q01DX009 (ip), vehicle: distilled water + Tween-80); 100 % of control (dose: 100.0 mg/kg/injection, schedule: Q01DX009 (ip), vehicle: distilled water + Tween-80); 151 % of control and 168 % of control (dose: 200.0 mg/kg/injection, schedule: Q01DX009 (ip), vehicle: distilled water + Tween-80); 108 % of control (dose: 400.0 mg/kg/injection, schedule: Q01DX009 (ip), vehicle: distilled water + Tween-80).
